Results: the supplement of paper PMC11451515

Experiments:
Assay in all cases: AUC of viability dose-response curve (% viability x log10 dose units); higher = less sensitive
Conditions in all cases: 48 h
NOMO1 = tested on: NOMO1
In short: (§1)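 Medium-adapted leukemia cells in 1536-well plates, at 500 or 1000 cells/well, were incubated for 48 h at 37°C with library compounds in DMSO at 11 threefold doses from 47 μM to 0.79 nM. CellTiter-Glo One luminescence normalised per plate to DMSO and cell-free wells was fitted with a four-parameter log-logistic model over log10 doses. Area under the curve was integrated from this fit by trapezoidal rule, with curves beyond full viability scaled and failed quality-control curves removed.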

P12-Ichikawa = tested on: P12-Ichikawa
In short: as §1

SEM cells = tested on: SEM cells
In short: as §1

[1] = RPMI 5 mM glucose + 10% dialyzed FBS

## COC[C@@H](NC(C)=O)C(=O)NCc1ccccc1
NOMO1; HPLM + 10% dialyzed FBS
  AUC of viability dose-response curve: 457
NOMO1; RPMI 5 mM glucose + 10% FBS
  AUC of viability dose-response curve: 467
NOMO1; [1]
  AUC of viability dose-response curve: 466
P12-Ichikawa; HPLM + 10% dialyzed FBS
  AUC of viability dose-response curve: 453
P12-Ichikawa; RPMI 5 mM glucose + 10% FBS
  AUC of viability dose-response curve: 465
P12-Ichikawa; [1]
  AUC of viability dose-response curve: 466
SEM cells; HPLM + 10% dialyzed FBS
  AUC of viability dose-response curve: 466
SEM cells; RPMI 5 mM glucose + 10% FBS
  AUC of viability dose-response curve: 449
SEM cells; [1]
  AUC of viability dose-response curve: 456

## Oc1ccc(C2CCN(c3ccnc4ccccc34)CC2)cc1O
NOMO1; HPLM + 10% dialyzed FBS
  AUC of viability dose-response curve: 445
NOMO1; RPMI 5 mM glucose + 10% FBS
  AUC of viability dose-response curve: 457
NOMO1; [1]
  AUC of viability dose-response curve: 467
P12-Ichikawa; HPLM + 10% dialyzed FBS
  AUC of viability dose-response curve: 427
P12-Ichikawa; RPMI 5 mM glucose + 10% FBS
  AUC of viability dose-response curve: 418
P12-Ichikawa; [1]
  AUC of viability dose-response curve: 408
SEM cells; HPLM + 10% dialyzed FBS
  AUC of viability dose-response curve: 399
SEM cells; RPMI 5 mM glucose + 10% FBS
  AUC of viability dose-response curve: 386
SEM cells; [1]
  AUC of viability dose-response curve: 404

## OCc1ccc(-c2nn(Cc3ccccc3)c3ccccc23)o1
NOMO1; HPLM + 10% dialyzed FBS
  AUC of viability dose-response curve: 385
NOMO1; RPMI 5 mM glucose + 10% FBS
  AUC of viability dose-response curve: 425
NOMO1; [1]
  AUC of viability dose-response curve: 405
P12-Ichikawa; HPLM + 10% dialyzed FBS
  AUC of viability dose-response curve: 442
P12-Ichikawa; RPMI 5 mM glucose + 10% FBS
  AUC of viability dose-response curve: 464
P12-Ichikawa; [1]
  AUC of viability dose-response curve: 459
SEM cells; HPLM + 10% dialyzed FBS
  AUC of viability dose-response curve: 369
SEM cells; RPMI 5 mM glucose + 10% FBS
  AUC of viability dose-response curve: 346
SEM cells; [1]
  AUC of viability dose-response curve: 347

## O=C(/C=C/c1c(C(=O)[O-])[nH]c2cc(Cl)cc(Cl)c12)Nc1ccccc1
NOMO1; HPLM + 10% dialyzed FBS
  AUC of viability dose-response curve: 471
NOMO1; RPMI 5 mM glucose + 10% FBS
  AUC of viability dose-response curve: 444
NOMO1; [1]
  AUC of viability dose-response curve: 462
P12-Ichikawa; HPLM + 10% dialyzed FBS
  AUC of viability dose-response curve: 466
P12-Ichikawa; RPMI 5 mM glucose + 10% FBS
  AUC of viability dose-response curve: 464
P12-Ichikawa; [1]
  AUC of viability dose-response curve: 467
SEM cells; HPLM + 10% dialyzed FBS
  AUC of viability dose-response curve: 466
SEM cells; RPMI 5 mM glucose + 10% FBS
  AUC of viability dose-response curve: 466
SEM cells; [1]
  AUC of viability dose-response curve: 463

## Cn1cc(-c2ccc3nnc(C(F)(F)c4ccc5ncccc5c4)n3n2)cn1
NOMO1; HPLM + 10% dialyzed FBS
  AUC of viability dose-response curve: 469
NOMO1; RPMI 5 mM glucose + 10% FBS
  AUC of viability dose-response curve: 435
NOMO1; [1]
  AUC of viability dose-response curve: 470
P12-Ichikawa; HPLM + 10% dialyzed FBS
  AUC of viability dose-response curve: 447
P12-Ichikawa; RPMI 5 mM glucose + 10% FBS
  AUC of viability dose-response curve: 452
P12-Ichikawa; [1]
  AUC of viability dose-response curve: 454
SEM cells; HPLM + 10% dialyzed FBS
  AUC of viability dose-response curve: 463
SEM cells; RPMI 5 mM glucose + 10% FBS
  AUC of viability dose-response curve: 469
SEM cells; [1]
  AUC of viability dose-response curve: 455

## CC(=O)N1CCN(c2ccc(OCc3nn(C)c(C)c3-c3cccc4c(CCCOc5cccc6ccccc56)c(C(=O)O)n(Cc5cccnc5)c34)cc2)CC1
NOMO1; HPLM + 10% dialyzed FBS
  AUC of viability dose-response curve: 368
NOMO1; RPMI 5 mM glucose + 10% FBS
  AUC of viability dose-response curve: 355
NOMO1; [1]
  AUC of viability dose-response curve: 376
P12-Ichikawa; HPLM + 10% dialyzed FBS
  AUC of viability dose-response curve: 416
P12-Ichikawa; RPMI 5 mM glucose + 10% FBS
  AUC of viability dose-response curve: 418
P12-Ichikawa; [1]
  AUC of viability dose-response curve: 445
SEM cells; HPLM + 10% dialyzed FBS
  AUC of viability dose-response curve: 457
SEM cells; RPMI 5 mM glucose + 10% FBS
  AUC of viability dose-response curve: 440
SEM cells; [1]
  AUC of viability dose-response curve: 464

## O=C(Nc1cccc(Nc2ncc(Br)c(NCCc3cnc[nH]3)n2)c1)N1CCCC1
NOMO1; HPLM + 10% dialyzed FBS
  AUC of viability dose-response curve: 349
NOMO1; RPMI 5 mM glucose + 10% FBS
  AUC of viability dose-response curve: 342
NOMO1; [1]
  AUC of viability dose-response curve: 369
P12-Ichikawa; HPLM + 10% dialyzed FBS
  AUC of viability dose-response curve: 318
P12-Ichikawa; RPMI 5 mM glucose + 10% FBS
  AUC of viability dose-response curve: 294
P12-Ichikawa; [1]
  AUC of viability dose-response curve: 344
SEM cells; HPLM + 10% dialyzed FBS
  AUC of viability dose-response curve: 213
SEM cells; RPMI 5 mM glucose + 10% FBS
  AUC of viability dose-response curve: 203
SEM cells; [1]
  AUC of viability dose-response curve: 191

## CC(=O)CC(C1=CC=CC=C1)C/2=C(O)/C3=CC=CC=C3OC2=O (stereo unspecified)
NOMO1; HPLM + 10% dialyzed FBS
  AUC of viability dose-response curve: 408
NOMO1; RPMI 5 mM glucose + 10% FBS
  AUC of viability dose-response curve: 447
NOMO1; [1]
  AUC of viability dose-response curve: 471
P12-Ichikawa; HPLM + 10% dialyzed FBS
  AUC of viability dose-response curve: 462
P12-Ichikawa; RPMI 5 mM glucose + 10% FBS
  AUC of viability dose-response curve: 469
P12-Ichikawa; [1]
  AUC of viability dose-response curve: 465
SEM cells; HPLM + 10% dialyzed FBS
  AUC of viability dose-response curve: 433
SEM cells; RPMI 5 mM glucose + 10% FBS
  AUC of viability dose-response curve: 403
SEM cells; [1]
  AUC of viability dose-response curve: 431

## CCOc1cc(N)c(Cl)cc1C(=O)NCC1CN(Cc2ccc(F)cc2)CCO1 (stereo unspecified)
NOMO1; HPLM + 10% dialyzed FBS
  AUC of viability dose-response curve: 464
NOMO1; RPMI 5 mM glucose + 10% FBS
  AUC of viability dose-response curve: 470
NOMO1; [1]
  AUC of viability dose-response curve: 460
P12-Ichikawa; HPLM + 10% dialyzed FBS
  AUC of viability dose-response curve: 467
P12-Ichikawa; RPMI 5 mM glucose + 10% FBS
  AUC of viability dose-response curve: 467
P12-Ichikawa; [1]
  AUC of viability dose-response curve: 469
SEM cells; HPLM + 10% dialyzed FBS
  AUC of viability dose-response curve: 419
SEM cells; RPMI 5 mM glucose + 10% FBS
  AUC of viability dose-response curve: 467
SEM cells; [1]
  AUC of viability dose-response curve: 466
